According to patent publication US9480259B2, “Pyrazolopyrans having herbicidal and pharmaceutical properties” (BASF SE, priority 2012, dated 2016):
pEC50: −log10 of the molar value.

How the values were obtained:
[1] = test system: SETFA, AMARE, POLCO, CHEAL, GALAP; assay: Greenhouse herbicidal test, post-emergence, weed panel; format: in vivo; settings: application rate 1 kg/ha, scale 0 to 100
Text: (§1) The seeds of the test plants were sown separately for each species. For the post-emergence treatment, the test plants were first grown to a height of 2 to 5 cm, depending on the plant habit, and only then treated with the active ingredients which had been suspended or emulsified in water. For this purpose, the test plants were either sown directly and grown in the same containers, or they were first grown separately as seedlings and transplanted into the test containers a few days prior to treatment. Depending on the species, the plants were kept at 10-25° C. or 20-35° C. The test period extended over 8 to 9 days. During this time, the plants were tended, and their response to the individual treatments was evaluated. Evaluation was carried out using a scale from 0 to 100. 100 means no emergence of the plants, or complete destruction of at least the aerial moieties, and 0 means no damage, or normal course of growth. A good herbicidal activity is given at values of at least 70 and a very good herbicidal activity is given at values of at least 85. The plants used in the greenhouse experiments belonged to the following species: [table]

[2] = biological target: Arabidopsis thaliana SHMT; assay: SHMT activity assay (ED50 SHMT), coupled with N5,N10-CH2-THF dehydrogenase, NADH at 340 nm; format: biochemical
In short: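 His-tagged SHMT purified on Ni-NTA. NADH formation followed at 340 nm for 30 min; ED50 from inhibition of initial velocity.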

[3] = test system: AMARE (Amaranthus retroflexus); assay: Greenhouse herbicidal test, post-emergence, AMARE; format: in vivo; settings: Amaranthus retroflexus, application rate 1 kg/ha, scale 0 to 100, read-out: herbicidal activity against AMARE
Text: as §1

[4] = test system: CHEAL (Chenopodium album); assay: Greenhouse herbicidal test, post-emergence, CHEAL; format: in vivo; settings: Chenopodium album, application rate 1 kg/ha, scale 0 to 100, read-out: herbicidal activity against CHEAL
Text: as §1

[5] = Table 2, values given as upper bounds
[6] = inhibition of initial velocity of Arabidopsis thaliana SHMT

Question: With `Cc1n[nH]c2c1C(c1cc(Cl)cc(Cl)c1)(C(C)C)C(C#N)=C(N)O2` (racemic) [Compound 2.112] as the molecule, how does the “herbicidal activity against at least three of the weeds SETFA, AMARE, POLCO, CHEAL, GALAP” value (from here on “herbicidal activity against”) [1] read?
Answer: The value was “good or very good”.

Question: How did the “herbicidal activity against” value [1] turn out when `Cc1n[nH]c2c1C(c1cc(Cl)cc(C#N)c1)(C1(F)CC1)C(C#N)=C(N)O2` (racemic) [Compound 2.400] was run?
Answer: The value was “good or very good”.

Question: `Cc1n[nH]c2c1C(c1cc(C#N)cc(C(F)(F)F)c1)(C1(F)CC1)C(C#N)=C(N)O2` (racemic) [Compound 2.404] was tested. Which “herbicidal activity against” value [1] did it give?
Answer: Its value is “good or very good”.

Question: For `CC(=O)N(C)c1cc(C#N)cc(C2(C3CCC3)C(C#N)=C(N)Oc3[nH]nc(C)c32)c1` (racemic) [Compound 2.414], which “herbicidal activity against” value [1] is on record?
Answer: The value was “good or very good”.

Question: For `Cc1n[nH]c2c1C(c1cc(C#N)cc(OC(F)(F)F)c1)(C1CCC1)C(C#N)=C(N)O2` (racemic) [Compound 2.417], which “herbicidal activity against” value [1] is on record?
Answer: The value was “good or very good”.

Question: For `CC(=O)N(C)c1cc(C(F)(F)F)cc(C2(C3(F)CC3)C(C#N)=C(N)Oc3[nH]nc(C)c32)c1` (racemic) [Compound 2.439], which “herbicidal activity against” value [1] is on record?
Answer: The value was “good or very good”.

Question: With `CCCC(=O)N(C)c1cc(C#N)cc(C2(C3CCC3)C(C#N)=C(N)Oc3[nH]nc(C)c32)c1` (stereo not shown) [Compound 2.612] as the molecule, how does the pEC50 [2, 5] read?
Answer: The pEC50 was > 8.00.

Question: And the “herbicidal activity against” value [1]?
Answer: The value was “good or very good”.

Question: How did the pest or weed control at 1000 g/ha [3] turn out when `COCCOCC(=O)N(C)c1cc(C#N)cc(C2(C3CCC3)C(C#N)=C(N)Oc3[nH]nc(C)c32)c1` (stereo not shown) [Compound 2.616] was run?
Answer: The pest or weed control at 1000 g/ha was ≥ 85%.

Question: What about the pEC50 [2, 5] of the same molecule?
Answer: The pEC50 was > 8.00.

Question: What about the “herbicidal activity against” value [1] of the same molecule?
Answer: Its value is “good or very good”.

Question: And the pest or weed control at 1000 g/ha [4]?
Answer: Its pest or weed control at 1000 g/ha is ≥ 85%.

Question: How did the pest or weed control at 1000 g/ha [3] turn out when `Cc1n[nH]c2c1C(c1cc(C#N)cc(N(C)S(C)(=O)=O)c1)(C1CCC1)C(C#N)=C(N)O2` (stereo not shown) [Compound 2.617] was run?
Answer: Its pest or weed control at 1000 g/ha is ≥ 85%.

Question: And the pEC50 [2, 5]?
Answer: Its pEC50 is > 8.00.

Question: What about the “herbicidal activity against” value [1] of the same molecule?
Answer: The value was “good or very good”.

Question: And the pest or weed control at 1000 g/ha [4]?
Answer: Its pest or weed control at 1000 g/ha is ≥ 85%.

Question: With `Cc1n[nH]c2c1C(c1cc(-c3ccccc3)cs1)(C1CC1)C(C#N)=C(N)O2` (stereo not shown) [Compound 4.64] as the molecule, how does the pEC50 [2, 6] read?
Answer: The pEC50 was > 6.00.

Question: With `Cc1n[nH]c2c1C(c1cc(C(=O)O)cs1)(C1CCC1)C(C#N)=C(N)O2` (stereo not shown) [Compound 4.66] as the molecule, how does the pEC50 [2, 6] read?
Answer: The pEC50 was > 6.00.

Question: `Cc1n[nH]c2c1C(C(C)C)(C(F)(F)c1cccc(Cl)c1)C(C#N)=C(N)O2` (stereo not shown) [Compound 4.67] was tested. Which pEC50 [2, 6] did it give?
Answer: Its pEC50 is > 6.00.

Question: How did the pEC50 [2, 6] turn out when `Cc1n[nH]c2c1C(c1cc(-c3cccc(C(F)(F)F)c3)cs1)(C1CCC1)C(C#N)=C(N)O2` (stereo not shown) [Compound 4.68] was run?
Answer: Its pEC50 is > 6.00.

Question: With `CCC1(c2ccc3c(c2)C(C)(C)CCC3(C)C)C(C#N)=C(N)Oc2[nH]nc(C)c21` (stereo not shown) [Compound 4.69] as the molecule, how does the pEC50 [2, 6] read?
Answer: Its pEC50 is > 6.00.

Question: `CCC1(c2ccc3c(c2)C(C)(C)C(C)C3(C)C)C(C#N)=C(N)Oc2[nH]nc(C)c21` (stereo not shown) [Compound 4.71] was tested. Which pEC50 [2, 6] did it give?
Answer: The pEC50 was > 6.00.

Question: With `CCC1(c2ccc3[nH]c(=O)oc3c2)C(C#N)=C(N)Oc2[nH]nc(C)c21` (stereo not shown) [Compound 4.72] as the molecule, how does the pEC50 [2, 6] read?
Answer: The pEC50 was > 6.00.

Question: `Cc1n[nH]c2c1C(c1ccc(Cl)s1)(C1CC1)C(C#N)=C(N)O2` (stereo not shown) [Compound 4.74] was tested. Which pEC50 [2, 6] did it give?
Answer: The pEC50 was > 6.00.

Question: `CCC1(CCc2ccccc2)C(C#N)=C(N)Oc2[nH]nc(C)c21` (stereo not shown) [Compound 4.76] was tested. Which pEC50 [2, 6] did it give?
Answer: Its pEC50 is > 6.00.

Question: How did the pEC50 [2, 6] turn out when `COc1ccc2cc(C3(C4CCC4)C(C#N)=C(N)Oc4[nH]nc(CO)c43)ccc2c1` (stereo not shown) [Compound 4.77] was run?
Answer: Its pEC50 is > 6.00.

Question: How did the pEC50 [2, 6] turn out when `CCc1n[nH]c2c1C(c1ccc(Cl)s1)(C1CC1)C(C#N)=C(N)O2` (stereo not shown) [Compound 4.78] was run?
Answer: The pEC50 was > 5.00.

Question: `CCC1(c2cc(C)co2)C(C#N)=C(N)Oc2[nH]nc(C)c21` (stereo not shown) [Compound 4.79] was tested. Which pEC50 [2, 6] did it give?
Answer: The pEC50 was > 5.00.

Question: How did the pEC50 [2, 6] turn out when `Cc1n[nH]c2c1C(c1ccc(C(=O)O)s1)(C1CCC1)C(C#N)=C(N)O2` (stereo not shown) [Compound 4.80] was run?
Answer: Its pEC50 is > 5.00.

Question: `Cc1n[nH]c2c1C(c1cc(-c3ccccc3)cs1)(C(C)C)C(C#N)=C(N)O2` (stereo not shown) [Compound 4.81] was tested. Which pEC50 [2, 6] did it give?
Answer: The pEC50 was > 5.00.

Question: How did the pEC50 [2, 6] turn out when `N#CC1=C(N)Oc2[nH]nc(C(F)F)c2C1(c1ccc(Cl)s1)C1CC1` (stereo not shown) [Compound 4.83] was run?
Answer: The pEC50 was > 5.00.
